From patent publication US20090270474A1, “Therapeutic Agent for Keratoconjunctival Disorder” (priority 2005, published 2009)

Test system: corneal disorder models
Experiment: Test for therapeutic effect on corneal disorder (exorbital lacrimal gland removal model, fluorescein staining score)
Format: in vivo, male SD rats
Method: Using male SD rats, corneal disorder models were produced in accordance with the method of Fujihara et al. (Invest. Opthalmol. Vis. Sci. 42 (1): 96-100 (2001)). After the production of the corneal disorder models, the corneal disorder score was evaluated in accordance with the method of Murakami et al. (Journal of the eye 21 (1): 87-90 (2004)), and the improvement ratio of corneal disorder after instillation of eprosartan mesylate (hereinafter referred to as “Compound A”) was obtained.
As test animals, male SD rats were used, and systemic anesthesia was given to the rats by administration of Nembutal. Subsequently the exorbital lacrimal gland was removed and a corneal disorder was induced over a period of 2 months.
Then, Compound A was administered as follows.
A phosphate-buffered saline solution (PBS solution) containing Compound A (0.1%) was instilled into both eyes 6 times a day for 14 days (instilled amount: 5 μL/dose) (one group consisting of 4 animals, 8 eyes).
In a control group, PBS solution was instilled into both eyes 6 times a day for 14 days (instilled amount: 5 μL/dose) (one group consisting of 4 animals, 8 eyes).
Fourteen days after the start of instillation, the damaged parts of the cornea were stained with fluorescein. For each of the upper, middle and lower parts of the cornea, the degree of fluorescein staining was evaluated by scoring according to the criteria shown below and the improvement ratio of corneal disorder was calculated from the mean value of the total scores for each of the above-mentioned parts.
Also for normal eyes, the mean value of the total scores for each of the above-mentioned parts was obtained. […]
By taking the mean value of the total scores for the control group (PBS solution) as a standard (improvement ratio: 0%) and according to the calculation formula shown below, the improvement ratio in the Compound A instillation group was calculated, which is shown in Table 1. […]

## CCCCc1ncc(/C=C(\Cc2cccs2)C(=O)O)n1Cc1ccc(C(=O)O)cc1 [Compound A, (E)-a-[[2-n-butyl-1-[(4-carboxyphenyl)methyl]-1H-imidazol-5-yl]methylene]-2-thiophenepropionic acid monomethanesulfonate]
0.1% in PBS instilled 6 times a day for 14 days, {(control)-(Compound A)}/((control)-(normal eye))x100, control = 0%
  Improvement ratio (%): 84.8%
rats, Table 1, 0.1% instillation for 14 days
  Improvement of corneal damage (in words): significantly improved a corneal damage
Total fluorescein staining score (upper, middle, lower cornea, each 0-3), 0.1% in PBS instilled into both eyes 6 times a day for 14 days, mean of 8 eyes, control 6.1, normal eye 2.8
  Mean value of scores: 3.3
